In publication PMC3179844 (Chemmedchem, 2011):

Key:
[1] = target: human cytochrome P450 3A4-BQ (Homo sapiens, UniProt P08684); assay: Inhibition of human cytochrome P450 3A4-BQ
[2] = target: human cytochrome P450 2C9 (Homo sapiens, UniProt P11712); assay: Inhibition of human cytochrome P450 2C9; type: in vitro ADME
[3] = target: human cytochrome P450 2C19 (Homo sapiens, UniProt P33261); assay: Inhibition of human cytochrome P450 2C19; type: in vitro ADME
[4] = target: human cytochrome P450 3A4-BFC (Homo sapiens, UniProt P08684); assay: Inhibition of human cytochrome P450 3A4-BFC; type: in vitro ADME
[5] = target: T1, human cytochrome P450 1A2 (Homo sapiens, UniProt P05177); assay: Inhibition of human cytochrome P450 1A2; type: in vitro ADME
T1 sequence (P05177 1-516): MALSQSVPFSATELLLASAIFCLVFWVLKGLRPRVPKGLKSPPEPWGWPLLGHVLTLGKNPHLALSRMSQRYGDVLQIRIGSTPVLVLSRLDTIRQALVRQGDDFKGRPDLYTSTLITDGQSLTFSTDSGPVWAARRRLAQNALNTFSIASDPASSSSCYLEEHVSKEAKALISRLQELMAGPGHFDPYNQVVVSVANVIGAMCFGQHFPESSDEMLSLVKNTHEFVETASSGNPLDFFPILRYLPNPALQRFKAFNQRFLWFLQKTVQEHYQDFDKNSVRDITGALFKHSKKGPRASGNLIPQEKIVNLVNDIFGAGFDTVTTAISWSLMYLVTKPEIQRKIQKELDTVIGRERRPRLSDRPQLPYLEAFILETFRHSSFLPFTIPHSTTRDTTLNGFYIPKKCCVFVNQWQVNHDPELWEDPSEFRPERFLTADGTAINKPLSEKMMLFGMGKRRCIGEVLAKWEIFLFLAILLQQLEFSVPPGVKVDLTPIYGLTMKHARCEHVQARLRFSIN

mouse 11β-HSD1 = mouse 11β-HSD1 (Mus musculus, UniProt P50172); assay: Cellular 11β-HSD1 inhibition, mouse enzyme; type: cell-based; conditions: mean of three measurements
[6] = target: human cytochrome P450 2D6 (Homo sapiens, UniProt P10635); assay: Inhibition of human cytochrome P450 2D6; type: in vitro ADME
[7] = Metabolism studies in human liver microsomes; type: in vitro ADME; conditions: for metabolites identified / half-life: human liver microsomes, 37 °C, NADPH; for half-life: 40 min, mean of two measurements
[8] = Water solubility in Na2HPO4 buffer solution; type: physicochemical; conditions: aqueous buffer
[9] = human, liver microsomes, Half-life

Sequence of mouse 11β-HSD1 (P50172 whole entry): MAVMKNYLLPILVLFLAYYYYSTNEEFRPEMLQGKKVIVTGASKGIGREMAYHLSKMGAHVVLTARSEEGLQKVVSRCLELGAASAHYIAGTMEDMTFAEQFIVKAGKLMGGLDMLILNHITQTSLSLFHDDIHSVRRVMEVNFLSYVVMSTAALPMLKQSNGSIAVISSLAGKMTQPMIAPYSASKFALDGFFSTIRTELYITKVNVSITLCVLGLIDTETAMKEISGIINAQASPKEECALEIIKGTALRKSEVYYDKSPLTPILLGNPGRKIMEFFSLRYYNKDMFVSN
Sequence of human cytochrome P450 3A4-BQ (P08684 whole entry): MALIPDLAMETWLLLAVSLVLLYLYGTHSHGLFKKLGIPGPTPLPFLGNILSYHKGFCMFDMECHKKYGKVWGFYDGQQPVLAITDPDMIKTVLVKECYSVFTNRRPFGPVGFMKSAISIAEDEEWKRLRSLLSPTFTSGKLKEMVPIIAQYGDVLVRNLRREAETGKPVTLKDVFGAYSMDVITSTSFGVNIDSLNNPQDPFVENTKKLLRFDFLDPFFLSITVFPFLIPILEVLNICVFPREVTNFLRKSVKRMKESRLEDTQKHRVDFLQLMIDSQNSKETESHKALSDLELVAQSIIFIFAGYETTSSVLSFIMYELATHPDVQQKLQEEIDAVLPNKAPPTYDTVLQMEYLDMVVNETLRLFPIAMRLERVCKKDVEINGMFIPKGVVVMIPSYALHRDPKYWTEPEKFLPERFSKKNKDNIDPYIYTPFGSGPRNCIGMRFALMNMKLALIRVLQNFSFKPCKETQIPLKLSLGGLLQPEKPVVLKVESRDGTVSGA
Sequence of human cytochrome P450 3A4-BFC (P08684 whole entry): as above
Sequence of human cytochrome P450 2C9 (P11712 whole entry): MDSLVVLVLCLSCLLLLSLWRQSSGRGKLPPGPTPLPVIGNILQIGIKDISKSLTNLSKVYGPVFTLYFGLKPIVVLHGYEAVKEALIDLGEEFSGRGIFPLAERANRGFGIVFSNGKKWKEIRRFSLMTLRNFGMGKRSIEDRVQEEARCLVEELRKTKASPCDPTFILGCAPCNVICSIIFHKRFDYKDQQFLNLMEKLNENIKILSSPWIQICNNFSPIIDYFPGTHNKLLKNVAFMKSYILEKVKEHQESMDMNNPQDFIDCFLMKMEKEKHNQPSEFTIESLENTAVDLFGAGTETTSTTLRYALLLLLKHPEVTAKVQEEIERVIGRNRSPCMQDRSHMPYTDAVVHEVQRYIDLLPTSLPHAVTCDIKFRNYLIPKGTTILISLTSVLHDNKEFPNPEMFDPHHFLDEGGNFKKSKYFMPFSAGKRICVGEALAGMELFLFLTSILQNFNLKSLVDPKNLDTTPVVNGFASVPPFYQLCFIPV
Sequence of human cytochrome P450 2C19 (P33261 whole entry): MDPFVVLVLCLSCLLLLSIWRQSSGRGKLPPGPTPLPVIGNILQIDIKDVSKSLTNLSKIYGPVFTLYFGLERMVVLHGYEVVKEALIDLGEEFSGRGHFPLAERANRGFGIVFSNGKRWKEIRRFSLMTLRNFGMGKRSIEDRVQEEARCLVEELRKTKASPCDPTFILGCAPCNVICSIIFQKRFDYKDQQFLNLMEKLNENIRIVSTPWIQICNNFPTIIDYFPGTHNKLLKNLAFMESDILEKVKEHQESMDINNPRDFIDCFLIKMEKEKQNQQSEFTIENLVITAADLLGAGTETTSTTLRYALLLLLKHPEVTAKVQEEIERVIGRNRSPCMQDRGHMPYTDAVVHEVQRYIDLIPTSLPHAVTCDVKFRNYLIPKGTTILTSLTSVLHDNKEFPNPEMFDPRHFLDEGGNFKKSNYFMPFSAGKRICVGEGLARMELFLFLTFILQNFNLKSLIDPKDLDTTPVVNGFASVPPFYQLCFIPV
Sequence of human cytochrome P450 2D6 (P10635 whole entry): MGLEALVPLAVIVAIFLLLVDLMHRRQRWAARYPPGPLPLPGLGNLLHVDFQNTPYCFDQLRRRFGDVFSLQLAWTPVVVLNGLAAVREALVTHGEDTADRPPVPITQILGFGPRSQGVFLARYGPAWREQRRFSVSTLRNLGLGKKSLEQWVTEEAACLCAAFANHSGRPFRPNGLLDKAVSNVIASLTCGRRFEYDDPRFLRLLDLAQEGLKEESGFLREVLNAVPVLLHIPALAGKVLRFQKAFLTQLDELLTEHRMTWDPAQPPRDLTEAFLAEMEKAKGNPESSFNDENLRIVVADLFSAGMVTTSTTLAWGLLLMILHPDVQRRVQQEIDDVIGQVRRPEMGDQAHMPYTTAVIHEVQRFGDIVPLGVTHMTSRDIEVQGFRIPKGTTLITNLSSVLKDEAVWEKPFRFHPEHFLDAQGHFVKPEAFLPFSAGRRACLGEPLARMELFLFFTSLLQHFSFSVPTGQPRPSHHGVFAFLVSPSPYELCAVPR

Compound | IC50 [1] | IC50 [2] | IC50 [3] | IC50 [4] | IC50 [5] | melting point | IC50 (mouse 11β-HSD1) | IC50 [6] | metabolites identified [7] | microsomal CLint ([7]; human, liver microsomes) | half-life [7, 9] | half-life [7] | solubility [8]
O=C(C[S+]([O-])Cc1ccccn1)C12CC3CC(CC(C3)C1)C2 (stereo not drawn) [Compound 40, 1-(Adamantan-1-yl)-2-[(pyridin-2-ylmethyl)sulfinyl]ethan-1-one] | – | – | – | – | – | 87 to 88 °C | 0.248 µM | – | – | – | – | – | –
O=C(COc1cccnc1)C12CC3CC(CC(C3)C1)C2 [Compound 12, 1-(Adamantan-1-yl)-2-(pyridin-3-yloxy)ethan-1-one] | – | – | – | – | – | 73 to 75 °C | 0.16 µM | – | – | – | – | – | –
Cl.O=C(COCc1cccnc1)C12CC3CC(CC(C3)C1)C2 [Compound 62, 1-(Adamantan-1-yl)-2-(pyridin-3-ylmethoxy)ethan-1-one hydrochloride] | – | – | – | – | – | – | – | – | – | – | – | – | > 4000 µg/mL
O=C(COCc1cccnc1)C12CC3CC(CC(C3)C1)C2 [Compound 31, 1-(Adamantan-1-yl)-2-(pyridin-3-ylmethoxy)ethan-1-one] | 1.6 µM | > 100 µM | 46 µM | 68 µM | 23 µM | – | – | – | no metabolites identified | 3.7 µL/min/mg | 2.13 h | – | –

Results, then the molecule that gave them:

IC50 [1] | IC50 [2] | IC50 [3] | IC50 [4] | IC50 [5] | melting point | IC50 (mouse 11β-HSD1) | IC50 [6] | metabolites identified [7] | microsomal CLint ([7]; human, liver microsomes) | half-life [7, 9] | half-life [7] | solubility [8] | Compound
24 µM | > 100 µM | 24 µM | > 100 µM | 36 µM | 116 to 117 °C | 0.035 µM | – | – | – | – | – | – | O=C(CS(=O)(=O)Cc1ccccn1)C12CC3CC(CC(C3)C1)C2 [Compound 43, 1-(Adamantan-1-yl)-2-[(pyridin-2-ylmethyl)sulfonyl]ethan-1-one]
> 100 µM | > 100 µM | > 100 µM | 12 µM | > 100 µM | 136 to 138 °C | 0.061 µM | > 100 µM | – | – | – | – | – | O=C(C[S+]([O-])c1ccncc1)C12CC3CC(CC(C3)C1)C2 (stereo not drawn) [Compound 18, 1-(Adamantan-1-yl)-2-(pyridine-4-sulfinyl)ethan-1-one]
– | – | – | – | – | 75 to 76 °C | 0.068 µM | – | – | – | – | – | – | Cc1cccc([S+]([O-])CC(=O)C23CC4CC(CC(C4)C2)C3)n1 (stereo not drawn) [Compound 17, 1-(Adamantan-1-yl)-2-(6-methylpyridine-2-sulfinyl)ethan-1-one]
78 µM | > 100 µM | > 100 µM | 20 µM | > 100 µM | – | 0.044 µM | > 100 µM | no metabolites identified | 8.9 µL/min/mg | 1.13 h | – | – | O=C(COCc1ccccn1)C12CC3CC(CC(C3)C1)C2 [Compound 28, 1-(Adamantan-1-yl)-2-(pyridin-2-ylmethoxy)ethan-1-one]
– | – | – | – | – | 66 to 68 °C | 0.043 µM | – | – | 31 µL/min/mg | 0.333 to 0.5 h | 0.333 h | – | O=C(C[S+]([O-])c1ccccn1)C12CC3CC(CC(C3)C1)C2 (stereo not drawn) [Compound 16, 1-(Adamantan-1-yl)-2-(pyridine-2-sulfinyl)ethan-1-one]
